From ChEMBL document CHEMBL4028801, “A multifactorial approach to hepatobiliary transporter assessment enables improved therapeutic compound development” (Toxicol Sci, 2013) come the findings set out here.

Each structure is given as a SMILES string. Where only a bound is given, the exact number is not on record here.

Data set [1] concerns the target T1, ATP-binding cassette sub-family C member 4 (Homo sapiens, UniProt O15439).
T1 sequence (O15439 whole entry): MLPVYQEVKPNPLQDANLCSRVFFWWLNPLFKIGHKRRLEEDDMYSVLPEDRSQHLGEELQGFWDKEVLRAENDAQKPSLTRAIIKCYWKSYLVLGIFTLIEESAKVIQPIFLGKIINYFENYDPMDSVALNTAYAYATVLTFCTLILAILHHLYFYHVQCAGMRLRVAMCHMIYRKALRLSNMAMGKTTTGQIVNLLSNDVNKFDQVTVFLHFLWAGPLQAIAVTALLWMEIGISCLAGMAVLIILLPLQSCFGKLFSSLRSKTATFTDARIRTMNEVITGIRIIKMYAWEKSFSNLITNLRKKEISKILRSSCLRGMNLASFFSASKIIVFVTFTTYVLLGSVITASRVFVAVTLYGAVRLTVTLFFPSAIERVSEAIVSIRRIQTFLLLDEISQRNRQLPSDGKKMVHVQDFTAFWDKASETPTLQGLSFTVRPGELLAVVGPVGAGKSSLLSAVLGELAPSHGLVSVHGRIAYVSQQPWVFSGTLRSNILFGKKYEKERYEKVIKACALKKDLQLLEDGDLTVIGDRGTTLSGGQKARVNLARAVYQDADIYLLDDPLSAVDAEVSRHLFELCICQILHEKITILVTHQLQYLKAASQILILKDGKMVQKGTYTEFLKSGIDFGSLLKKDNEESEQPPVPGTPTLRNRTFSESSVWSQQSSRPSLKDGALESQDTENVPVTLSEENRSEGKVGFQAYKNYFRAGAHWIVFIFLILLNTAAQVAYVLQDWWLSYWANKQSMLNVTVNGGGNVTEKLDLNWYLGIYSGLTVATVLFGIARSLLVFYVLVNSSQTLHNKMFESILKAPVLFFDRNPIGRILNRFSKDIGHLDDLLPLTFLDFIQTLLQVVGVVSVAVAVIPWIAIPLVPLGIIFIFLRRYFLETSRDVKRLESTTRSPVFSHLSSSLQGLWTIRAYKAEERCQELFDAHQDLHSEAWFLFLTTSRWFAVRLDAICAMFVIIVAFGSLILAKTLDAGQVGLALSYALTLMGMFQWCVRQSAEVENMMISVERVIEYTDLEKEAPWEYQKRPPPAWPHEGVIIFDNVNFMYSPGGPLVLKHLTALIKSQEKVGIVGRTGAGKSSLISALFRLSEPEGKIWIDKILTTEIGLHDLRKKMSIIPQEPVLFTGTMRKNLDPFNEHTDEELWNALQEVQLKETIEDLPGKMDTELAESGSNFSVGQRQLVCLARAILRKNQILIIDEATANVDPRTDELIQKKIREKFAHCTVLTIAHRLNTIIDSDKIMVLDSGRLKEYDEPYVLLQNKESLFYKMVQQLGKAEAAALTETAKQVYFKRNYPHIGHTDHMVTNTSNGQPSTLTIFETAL
The experiment in a line: Inhibition of human MRP4 overexpressed in Sf9 cell membrane vesicles assessed as uptake of [3H]-estradiol-17beta-D-glucuronide in presence of ATP and GSH measured after 20 mins by membrane vesicle transport assay. Type of data set: ADME, cell-based.

Data set [2] can be described thus: Drug concentration at steady state in human at 200 to 1200 mg, po QD after 24 hrs. To be noted: in vivo.
A further data set can be described thus: clinical. To be noted: human, in vivo, po.
For data set [3], the target named is ATP-binding cassette sub-family C member 2 (Homo sapiens, UniProt Q92887). The experiment in a line: Inhibition of human MRP2 overexpressed in Sf9 cell membrane vesicles assessed as uptake of [3H]-estradiol-17beta-D-glucuronide in presence of ATP and GSH measured after 20 mins by membrane vesicle transport assay.
Chain of ATP-binding cassette sub-family C member 2 (Q92887 whole entry): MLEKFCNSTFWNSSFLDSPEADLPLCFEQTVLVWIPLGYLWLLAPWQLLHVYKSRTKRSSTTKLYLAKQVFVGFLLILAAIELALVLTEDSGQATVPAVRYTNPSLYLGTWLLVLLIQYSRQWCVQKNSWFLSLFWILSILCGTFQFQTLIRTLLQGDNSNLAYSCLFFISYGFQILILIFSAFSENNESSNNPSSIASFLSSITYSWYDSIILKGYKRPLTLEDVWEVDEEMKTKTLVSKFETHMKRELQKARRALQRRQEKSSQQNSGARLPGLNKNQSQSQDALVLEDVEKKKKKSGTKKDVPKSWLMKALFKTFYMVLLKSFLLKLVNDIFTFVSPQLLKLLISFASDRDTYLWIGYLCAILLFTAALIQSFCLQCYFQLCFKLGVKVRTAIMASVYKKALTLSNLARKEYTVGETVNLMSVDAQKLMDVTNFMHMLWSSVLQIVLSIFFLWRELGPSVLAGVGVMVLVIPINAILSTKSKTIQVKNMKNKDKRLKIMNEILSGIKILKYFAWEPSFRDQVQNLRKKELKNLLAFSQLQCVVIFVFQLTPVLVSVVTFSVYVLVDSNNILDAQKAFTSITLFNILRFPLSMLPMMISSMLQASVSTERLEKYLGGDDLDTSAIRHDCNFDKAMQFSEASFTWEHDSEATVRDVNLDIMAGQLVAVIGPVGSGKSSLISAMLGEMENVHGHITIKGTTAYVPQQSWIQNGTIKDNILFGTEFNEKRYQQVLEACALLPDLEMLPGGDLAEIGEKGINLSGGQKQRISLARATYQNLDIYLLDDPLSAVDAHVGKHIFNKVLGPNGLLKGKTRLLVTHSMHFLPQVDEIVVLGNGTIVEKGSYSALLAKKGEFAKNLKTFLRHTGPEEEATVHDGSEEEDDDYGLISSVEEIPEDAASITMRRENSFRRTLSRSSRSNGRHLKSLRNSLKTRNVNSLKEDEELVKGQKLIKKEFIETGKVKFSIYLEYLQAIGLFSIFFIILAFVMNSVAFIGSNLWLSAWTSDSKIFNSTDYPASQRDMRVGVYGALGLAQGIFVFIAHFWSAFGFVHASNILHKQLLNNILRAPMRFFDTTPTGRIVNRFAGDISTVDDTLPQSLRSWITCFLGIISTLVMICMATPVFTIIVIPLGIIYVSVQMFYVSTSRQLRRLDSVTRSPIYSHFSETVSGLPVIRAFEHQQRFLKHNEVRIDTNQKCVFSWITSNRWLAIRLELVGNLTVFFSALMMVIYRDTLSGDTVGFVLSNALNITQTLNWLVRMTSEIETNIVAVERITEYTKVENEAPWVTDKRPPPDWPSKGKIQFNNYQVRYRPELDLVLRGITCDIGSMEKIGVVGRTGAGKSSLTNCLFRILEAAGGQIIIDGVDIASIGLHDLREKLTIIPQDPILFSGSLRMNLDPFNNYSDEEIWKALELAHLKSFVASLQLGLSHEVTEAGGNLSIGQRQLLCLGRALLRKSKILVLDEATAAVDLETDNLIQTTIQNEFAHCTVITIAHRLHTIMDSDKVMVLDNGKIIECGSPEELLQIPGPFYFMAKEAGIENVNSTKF
Data set [4] deals with ATP-binding cassette sub-family C member 3 (Homo sapiens, UniProt O15438). The experiment in a line: Inhibition of human MRP3 overexpressed in Sf9 insect cell membrane vesicles assessed as uptake of [3H]-estradiol-17beta-D-glucuronide in presence of ATP and GSH measured after 10 mins by membrane vesicle transport assay. Format: ADME, cell-based.
Chain of ATP-binding cassette sub-family C member 3 (O15438 whole entry): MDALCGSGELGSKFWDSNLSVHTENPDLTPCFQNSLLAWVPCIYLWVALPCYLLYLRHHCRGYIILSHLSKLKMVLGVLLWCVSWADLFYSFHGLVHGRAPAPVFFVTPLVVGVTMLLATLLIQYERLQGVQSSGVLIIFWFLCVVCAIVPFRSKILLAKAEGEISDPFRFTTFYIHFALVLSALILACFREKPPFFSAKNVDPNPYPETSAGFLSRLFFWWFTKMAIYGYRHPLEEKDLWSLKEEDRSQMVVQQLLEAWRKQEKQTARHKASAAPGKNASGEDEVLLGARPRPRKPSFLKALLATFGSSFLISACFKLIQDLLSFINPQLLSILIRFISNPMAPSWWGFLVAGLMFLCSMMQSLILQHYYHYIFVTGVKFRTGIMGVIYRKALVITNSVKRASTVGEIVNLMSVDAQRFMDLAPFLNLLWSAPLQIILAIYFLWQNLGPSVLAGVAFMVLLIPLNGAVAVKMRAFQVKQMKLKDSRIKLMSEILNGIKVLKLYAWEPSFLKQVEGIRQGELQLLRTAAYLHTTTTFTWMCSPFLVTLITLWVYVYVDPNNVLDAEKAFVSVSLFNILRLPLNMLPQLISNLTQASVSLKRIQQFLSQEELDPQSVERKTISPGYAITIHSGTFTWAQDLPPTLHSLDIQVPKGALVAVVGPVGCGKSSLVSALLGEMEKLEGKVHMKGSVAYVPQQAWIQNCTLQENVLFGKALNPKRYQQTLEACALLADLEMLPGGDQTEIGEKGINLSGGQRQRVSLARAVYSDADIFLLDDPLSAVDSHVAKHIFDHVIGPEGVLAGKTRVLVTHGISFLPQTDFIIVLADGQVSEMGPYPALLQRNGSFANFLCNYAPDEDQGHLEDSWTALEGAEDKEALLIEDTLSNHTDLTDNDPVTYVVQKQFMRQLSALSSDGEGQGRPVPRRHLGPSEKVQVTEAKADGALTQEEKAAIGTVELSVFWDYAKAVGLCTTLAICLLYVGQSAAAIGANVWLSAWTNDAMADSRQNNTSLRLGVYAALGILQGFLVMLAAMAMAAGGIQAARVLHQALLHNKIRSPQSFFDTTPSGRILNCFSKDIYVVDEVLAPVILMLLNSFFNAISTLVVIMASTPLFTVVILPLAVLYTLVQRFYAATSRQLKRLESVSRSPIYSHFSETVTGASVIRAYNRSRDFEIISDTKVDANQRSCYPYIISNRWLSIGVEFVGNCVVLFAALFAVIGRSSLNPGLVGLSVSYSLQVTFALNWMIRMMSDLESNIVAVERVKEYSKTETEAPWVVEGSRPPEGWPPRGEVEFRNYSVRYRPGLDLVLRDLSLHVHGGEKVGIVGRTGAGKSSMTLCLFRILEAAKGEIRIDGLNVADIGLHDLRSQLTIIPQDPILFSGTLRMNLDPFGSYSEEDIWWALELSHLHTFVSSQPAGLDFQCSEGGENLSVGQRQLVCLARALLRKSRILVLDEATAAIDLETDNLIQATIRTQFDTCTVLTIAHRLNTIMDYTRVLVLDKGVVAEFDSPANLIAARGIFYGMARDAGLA
Data set [5] is described as follows: Ratio of drug concentration at steady state in human at 50 to 400 mg, po BID after 12 hrs to IC50 for human BSEP overexpressed in Sf9 insect cells. Format: ADME, organism-based. To be noted: in vivo.
In the next data set the target is Bile salt export pump (Homo sapiens, UniProt O95342). The experiment in a line: Inhibition of human BSEP overexpressed in Sf9 cell membrane vesicles assessed as uptake of [3H]-taurocholate in presence of ATP measured after 15 to 20 mins by membrane vesicle transport assay. Format: ADME, cell-based.
Chain of Bile salt export pump (O95342 whole entry): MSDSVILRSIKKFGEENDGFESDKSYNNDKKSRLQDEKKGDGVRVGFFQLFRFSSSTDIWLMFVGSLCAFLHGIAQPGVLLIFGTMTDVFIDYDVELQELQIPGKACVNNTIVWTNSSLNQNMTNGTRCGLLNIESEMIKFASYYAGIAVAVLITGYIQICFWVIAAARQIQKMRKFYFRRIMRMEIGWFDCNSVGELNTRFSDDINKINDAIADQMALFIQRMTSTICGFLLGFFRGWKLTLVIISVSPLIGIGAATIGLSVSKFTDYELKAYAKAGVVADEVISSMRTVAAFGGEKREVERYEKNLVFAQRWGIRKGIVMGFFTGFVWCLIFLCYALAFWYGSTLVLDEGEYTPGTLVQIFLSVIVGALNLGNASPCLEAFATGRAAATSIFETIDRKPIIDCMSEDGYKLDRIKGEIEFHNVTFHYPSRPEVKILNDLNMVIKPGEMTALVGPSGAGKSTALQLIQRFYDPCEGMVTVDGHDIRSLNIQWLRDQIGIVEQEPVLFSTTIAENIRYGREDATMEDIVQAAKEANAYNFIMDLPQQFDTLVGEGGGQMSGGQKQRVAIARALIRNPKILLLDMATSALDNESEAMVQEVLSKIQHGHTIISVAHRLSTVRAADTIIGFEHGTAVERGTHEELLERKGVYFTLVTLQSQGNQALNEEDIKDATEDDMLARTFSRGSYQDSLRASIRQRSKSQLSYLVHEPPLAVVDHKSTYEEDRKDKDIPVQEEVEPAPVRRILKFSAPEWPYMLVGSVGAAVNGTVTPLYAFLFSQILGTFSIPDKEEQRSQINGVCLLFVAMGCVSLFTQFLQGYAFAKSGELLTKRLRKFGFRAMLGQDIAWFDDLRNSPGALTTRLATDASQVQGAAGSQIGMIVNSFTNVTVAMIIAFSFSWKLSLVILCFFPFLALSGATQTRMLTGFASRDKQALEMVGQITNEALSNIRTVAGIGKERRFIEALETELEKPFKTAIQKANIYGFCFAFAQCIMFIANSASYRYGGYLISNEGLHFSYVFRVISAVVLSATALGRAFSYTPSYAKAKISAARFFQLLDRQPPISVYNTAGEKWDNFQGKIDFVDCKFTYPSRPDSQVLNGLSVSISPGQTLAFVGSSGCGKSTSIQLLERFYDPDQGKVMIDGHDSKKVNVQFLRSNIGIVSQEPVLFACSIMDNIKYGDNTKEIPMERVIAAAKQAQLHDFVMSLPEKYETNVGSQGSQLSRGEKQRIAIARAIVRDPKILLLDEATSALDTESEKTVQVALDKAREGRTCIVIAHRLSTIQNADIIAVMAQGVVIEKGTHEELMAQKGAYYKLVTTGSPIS
Data set [6] is described as follows: Drug concentration at steady state in human at 50 to 400 mg, po BID after 12 hrs. Format: ADME, organism-based. To be noted: in vivo, read-out: Css.
A short description of data set [7]: AUC in human at 50 to 400 mg, po BID after 12 hrs. Format: ADME, organism-based. To be noted: in vivo.
Data set [8] can be described thus: Ratio of drug concentration at steady state in human at 15 to 120 mg, po QD after 24 hrs to IC50 for human MRP3 overexpressed in Sf9 insect cells. Format: ADME, organism-based. To be noted: in vivo.
Data set [9] can be described thus: AUC in human at 15 to 120 mg, po QD after 24 hrs. To be noted: in vivo. Format: ADME, organism-based.
The nature of data set [10]: Drug concentration at steady state in human at 15 to 120 mg, po QD after 24 hrs. To be noted: in vivo, read-out: Css. Type of data set: ADME, organism-based.
Data set [11] in a line: Ratio of drug concentration at steady state in human at 15 to 120 mg, po QD after 24 hrs to IC50 for human MRP4 overexpressed in Sf9 insect cells. Type of data set: ADME, organism-based. To be noted: in vivo.
A short description of data set [12]: Ratio of drug concentration at steady state in human at 15 to 120 mg, po QD after 24 hrs to IC50 for human BSEP overexpressed in Sf9 insect cells. Format: ADME, organism-based. To be noted: in vivo.
In data set [13] the test system is Homo sapiens. Put plainly: Drug concentration at steady state in human at 25 to 50 mg, po TID after 8 hrs. To be noted: in vivo. Type of data set: ADME, organism-based.
Data set [14] in a line: Drug concentration at steady state in human at 200 mg, po Q3h measured after 3 hrs. Type of data set: ADME, organism-based. To be noted: in vivo, read-out: Css.
A short description of data set [15]: Ratio of drug concentration at steady state in human at 200 mg, po Q3h measured after 3 hrs to IC50 for human MRP3 overexpressed in Sf9 insect cells. Type of data set: ADME, organism-based. To be noted: in vivo.
Data set [16] in a line: AUC in human at 200 mg, po Q3h measured after 3 hrs. To be noted: in vivo. Details: dose 200 mg, time < 3 hr, route oral. Format: ADME, organism-based.
Data set [17] is described as follows: Ratio of drug concentration at steady state in human at 200 mg, po Q3h measured after 3 hrs to IC50 for human MRP4 overexpressed in Sf9 insect cells. To be noted: in vivo. Type of data set: ADME, organism-based.
Data set [18] is described as follows: Ratio of drug concentration at steady state in human at 200 mg, po Q3h measured after 3 hrs to IC50 for human BSEP overexpressed in Sf9 insect cells. Format: ADME, organism-based. To be noted: in vivo.
Data set [19] in a line: AUC in human at 5 to 20 mg, iv after 24 hrs. Type of data set: ADME, organism-based. To be noted: in vivo.
Data set [20] deals with Homo sapiens. Put plainly: Drug concentration at steady state in human at 5 to 20 mg, iv after 24 hrs. Type of data set: ADME, organism-based. To be noted: in vivo.

On to `CCCCc1oc2ccccc2c1C(=O)c1cc(I)c(OCCN(CC)CC)c(I)c1` [AMIODARONE], for which the IC50 in data set [1], in [3] and in [4] was greater than 133 µM in each case. The same molecule returned a concentration at 24 h in [2] of 1360 nM. In the data set “clinical”, this molecule gave an AUC at 24 h of 32.7 µM·h.
For `C#C[C@]1(O)CC[C@H]2[C@@H]3CCC4=Cc5oncc5C[C@]4(C)[C@H]3CC[C@@]21C` [DANAZOL], the Ratio in data set [5] is recorded as 0.024. Further, the IC50 was greater than 133 µM in [1], 18.7 µM on Bile salt export pump, greater than 133 µM in [3] and greater than 133 µM in [4]. For the same molecule, in [6], the concentration at 12 h was 457 nM. The same molecule yielded an area under the curve (AUC) at 12 h in [7] of 5.48 µM·h.
As to `COc1ccc2c(c1)C(=O)N(CCc1ccc(S(=O)(=O)NC(=O)NC3CCCCC3)cc1)C(=O)C2(C)C` [GLIQUIDONE], the IC50 is 6.3 µM in data set [1], 11.6 µM on Bile salt export pump and 23.9 µM in [4]. Further, the Ratio turned out to be 0.017 in data set [8], 0.064 in data set [11] and 0.035 in [12]. In data set [9], this molecule came in with an area under the curve (AUC) at 24 h of 9.67 µM·h. For the same molecule, the concentration at 24 h in [10] was 403 nM.
For `COc1ccc2c(c1)c(CC(=O)O)c(C)n2C(=O)c1ccc(Cl)cc1` [INDOMETHACIN], the 50% inhibitory concentration (IC50) in data set [4] was 66 µM. In the data set on Homo sapiens [13], this molecule displayed a Css of 1118 nM.
On to `CCN(CC)C(=O)/C(C#N)=C/c1cc(O)c(O)c([N+](=O)[O-])c1` [ENTACAPONE], for which the concentration for half-maximal inhibition (IC50) in [1] is 6.8 µM; at Bile salt export pump it was 55.6 µM; in [3] it was greater than 133 µM; in data set [4], 35.1 µM. In [14], the concentration at 3 h amounted to 1760 nM. For the same molecule, the Ratio in [15] is 0.05; in [17], 0.259; in data set [18], 0.032. This molecule had an AUC at 3 h in data set [16] of 5.29 µM·h.
`CO[C@H]1C[C@@H]2CC[C@@H](C)[C@@](O)(O2)C(=O)C(=O)N2CCCC[C@H]2C(=O)O[C@H]([C@H](C)C[C@@H]2CC[C@@H](OC(=O)C(C)(CO)CO)[C@H](OC)C2)CC(=O)[C@H](C)/C=C(\C)[C@@H](O)[C@@H](OC)C(=O)[C@H](C)C[C@H](C)/C=C/C=C/C=C/1C` [TEMSIROLIMUS]: the IC50 in data set [1] is 44 µM; in [3], 17.6 µM; in data set [4] it was 71.9 µM. This molecule also displayed an AUC at 24 h in [19] of 1.91 µM·h. Besides, the Css in the data set with Homo sapiens [20] came out at 79 nM.
